Assay results as given in ChEMBL document CHEMBL1135549 (J Med Chem, 2002).

Columns and labels:
[1] = target: T1, Fatty-acid amide hydrolase 1 (Homo sapiens, UniProt O00519); test: Inhibition of Fatty-acid amide hydrolase (FAAH) activity in human lymphoma U937 cell using [3H]AEA as substrate in the 0-25 uM conc; type: cell-based, U-937
T1 sequence (O00519 whole entry): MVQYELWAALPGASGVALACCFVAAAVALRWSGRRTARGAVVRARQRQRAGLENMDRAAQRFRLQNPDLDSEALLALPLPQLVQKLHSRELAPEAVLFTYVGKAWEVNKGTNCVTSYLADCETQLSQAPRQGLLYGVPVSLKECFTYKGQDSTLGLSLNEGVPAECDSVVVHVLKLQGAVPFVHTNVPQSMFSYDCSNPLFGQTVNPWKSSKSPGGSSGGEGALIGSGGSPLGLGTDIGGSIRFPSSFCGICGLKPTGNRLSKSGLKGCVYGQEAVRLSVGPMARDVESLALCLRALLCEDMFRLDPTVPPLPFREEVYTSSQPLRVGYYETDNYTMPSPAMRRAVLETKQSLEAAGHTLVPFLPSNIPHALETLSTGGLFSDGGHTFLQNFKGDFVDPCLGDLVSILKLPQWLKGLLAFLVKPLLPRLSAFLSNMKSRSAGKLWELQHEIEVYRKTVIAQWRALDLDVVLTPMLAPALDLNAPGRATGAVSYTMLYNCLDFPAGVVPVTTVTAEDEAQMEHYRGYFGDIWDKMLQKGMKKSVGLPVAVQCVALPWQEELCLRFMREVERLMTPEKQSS

[2] = Inhibition of N-arachidonoylethanolamine transporter (AEA) activity in human lymphoma U937 cell using [3H]AEA as substrate in the 0-1000 nM conc.; type: cell-based; conditions: u-937
Cannabinoid receptor 2 = target: T2, Cannabinoid receptor 2 (Rattus norvegicus, UniProt Q9QZN9); test: Displacement of [3H]CP-55940 from rat forebrain membrane which expresses Cannabinoid receptor 2 in the presence of PMSF
T2 sequence (Q9QZN9 whole entry): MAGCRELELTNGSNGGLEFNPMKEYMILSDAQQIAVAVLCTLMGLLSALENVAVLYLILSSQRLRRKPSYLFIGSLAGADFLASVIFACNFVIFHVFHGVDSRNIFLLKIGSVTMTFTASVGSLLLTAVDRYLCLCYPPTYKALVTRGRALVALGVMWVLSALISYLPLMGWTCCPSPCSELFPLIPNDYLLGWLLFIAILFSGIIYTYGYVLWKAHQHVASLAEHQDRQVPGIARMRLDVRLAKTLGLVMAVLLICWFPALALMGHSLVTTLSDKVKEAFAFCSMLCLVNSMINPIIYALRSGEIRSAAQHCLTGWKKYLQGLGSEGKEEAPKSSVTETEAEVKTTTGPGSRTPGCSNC

Cannabinoid receptor 1 = Cannabinoid receptor 1 (Rattus norvegicus, UniProt P20272); test: Displacement of [3H]CP-55940 from rat forebrain membrane which expresses Cannabinoid receptor 1 in the presence of PMSF
Cannabinoid receptor 1, sequence (P20272 whole entry): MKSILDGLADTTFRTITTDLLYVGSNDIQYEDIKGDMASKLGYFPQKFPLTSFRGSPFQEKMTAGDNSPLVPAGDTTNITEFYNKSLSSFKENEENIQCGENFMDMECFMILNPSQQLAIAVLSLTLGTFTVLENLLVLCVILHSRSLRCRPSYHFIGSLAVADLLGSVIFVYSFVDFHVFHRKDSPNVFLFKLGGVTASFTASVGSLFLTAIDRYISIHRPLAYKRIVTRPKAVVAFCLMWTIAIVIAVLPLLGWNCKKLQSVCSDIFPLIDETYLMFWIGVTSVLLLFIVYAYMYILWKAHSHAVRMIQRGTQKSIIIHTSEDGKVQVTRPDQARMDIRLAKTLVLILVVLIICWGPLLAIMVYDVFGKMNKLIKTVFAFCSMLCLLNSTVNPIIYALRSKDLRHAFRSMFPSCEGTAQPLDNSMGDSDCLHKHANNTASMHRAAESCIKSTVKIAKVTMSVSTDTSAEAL

[3] = target: Cannabinoid receptor (Rattus norvegicus) (UniProt Q9QZN9+P20272); test: Ratio of Ki at CB1 to Ki at CB2 receptors; type: protein assay
Cannabinoid receptor (Rattus norvegicus), sequence (P20272 whole entry, looked up, one chain of several): as the sequence (P20272 whole entry) above

Row | Compound | Ki [1] | Ki [2] | Ki (Cannabinoid receptor 2) | Ki (Cannabinoid receptor 1) | Ratio [3]
1 | CCCCC/C=C\C/C=C\C/C=C\C/C=C\CCCC(=O)NCCO [ANANDAMIDE] | > 10000 nM | > 10000 nM |  |  | 
2 | CCCCC/C=C\C[C@@H](O)/C=C/C=C\C/C=C\CCCC(=O)NCCO | 2900 nM | > 10000 nM | 500 nM | 150 nM | 0.3
3 | CCCCC[C@@H](O)/C=C/C=C\C/C=C\C/C=C\CCCC(=O)NCCO | 630 nM | > 10000 nM | > 1000 nM | 600 nM | < 0.6
4 | CCCCC[C@H](O)/C=C/C=C\CCCCCCCC(=O)NCCO | 430 nM | > 10000 nM | 600 nM | > 1000 nM | > 1.7
5 | CCCCC/C=C\C=C\C(O)C/C=C\C/C=C\CCCC(=O)NCCO (mixture of isomers) | 690 nM | > 10000 nM | > 1000 nM | > 1000 nM | 
6 | CCCCC/C=C\C=C\[C@@H](O)C/C=C\C/C=C\CCCC(=O)NCCO | 570 nM | > 10000 nM | > 1000 nM | > 1000 nM | 
7 | CCCCC/C=C\C/C=C\C/C=C\C/C=C\CCCC(=O)OC[C@H](O)CO | 2500 nM | 10000 nM | > 1000 nM | > 1000 nM | 
8 | CCCCC[C@@H](O)/C=C/C=C\C/C=C\C=C\[C@H](O)CCCC(=O)NCCO | 1260 nM | > 10000 nM | > 1000 nM | > 1000 nM | 
9 | CCCCCC(O)/C=C/C=C\C/C=C\C/C=C\CCCC(=O)NCCO (mixture of isomers) | 630 nM | > 10000 nM | > 1000 nM | 680 nM | > 0.7
10 | CCCCC/C=C\C/C=C\C/C=C\C/C=C\CCCC(=O)OC(CO)CO [2-ARACHIDONOYLGLYCEROL] | 5000 nM | 3000 nM | 100 nM |  | 
11 | CCCCC/C=C\C/C=C\C/C=C\C/C=C\CCCC(=O)OC[C@@H](O)CO | 3000 nM | > 10000 nM | > 1000 nM | > 1000 nM | 
12 | CCCCC[C@H](O)/C=C/C=C\C/C=C\C/C=C\CCCC(=O)OC[C@@H](O)CO | 6000 nM | 9000 nM | 550 nM | > 1000 nM | 
13 | CCCCC[C@H](O)/C=C/C=C\C/C=C\C/C=C\CCCC(=O)OC[C@H](O)CO | 5000 nM | 7000 nM | > 1000 nM | > 1000 nM | 
14 | CCCCC[C@H](O)/C=C/C=C\C=C\[C@@H](O)C/C=C\CCCC(=O)NCCO | 690 nM | > 10000 nM | > 1000 nM | > 1000 nM | 
